# Results reported in patent US10668028B2, “Methods and use of inducing apoptosis in cancer cells” (Berg LLC, priority 2008, dated 2020).
# How the values were obtained:
# [1] = system: human melanoma tumors; experiment: histopathology analysis of human melanoma (Skmel-28) tumors induced in nude athymic mice; type: in vivo; conditions: topical application for 30 days, H & E or S-100 stain
# Method: Skmel-28 cells were grown in 5% serum supplemented DMEM/F12 medium to 80% confluency. The cells were trypsinized and pelleted using a centrifuge. The pellets were then resuspended in cold PBS. The subjects for this study were nude athymia mice. Each subject received two injections of the cell suspension on the dorsal region of the mouse. After a visual assessment of the establishment of a tumor, treatment with a topical application would commence. After 30 days of treatment, the tumors were excised from the mice and placed in formalin. Each tumor sample was embedded in paraffin and sliced using a microtome. The slides underwent an H & E or S-100 stain. These samples were than analyzed by a pathologist to assess the vascular integrity of the tumor.
# [2] = system: Bcl-2 protein; conditions: melanoma; cited from earlier work
structure (smiles),measurement,setting,value
"COC1=C(OC)C(=O)C(C/C=C(\C)CC/C=C(\C)CC/C=C(\C)CC/C=C(\C)CC/C=C(\C)CC/C=C(\C)CC/C=C(\C)CC/C=C(\C)CC/C=C(\C)CCC=C(C)C)=C(C)C1=O [CoQ10, 2,3-dimethoxy-5-methyl-6-decaprenyl-1,4-benzoquinone]",tumor pathology / vascular integrity of the tumor,[1],disruption in tumor vasculature
same,Bcl-2 protein level,[2],downregulation of the Bcl-2 protein
